For assay [1], the target named is Voltage-dependent L-type calcium channel subunit alpha-1C (Homo sapiens, UniProt Q13936). The assay is classed as functional, cell-based.
The target in assay [2] is Synaptic vesicular amine transporter (Rattus norvegicus, UniProt Q01827). Type of assay: functional.
Assay [3] concerns the target 5-hydroxytryptamine receptor 2B (Homo sapiens, UniProt P41595).
Assay [4] deals with T1, Alpha-1A adrenergic receptor (Homo sapiens, UniProt P35348).
T1 sequence (P35348 whole entry): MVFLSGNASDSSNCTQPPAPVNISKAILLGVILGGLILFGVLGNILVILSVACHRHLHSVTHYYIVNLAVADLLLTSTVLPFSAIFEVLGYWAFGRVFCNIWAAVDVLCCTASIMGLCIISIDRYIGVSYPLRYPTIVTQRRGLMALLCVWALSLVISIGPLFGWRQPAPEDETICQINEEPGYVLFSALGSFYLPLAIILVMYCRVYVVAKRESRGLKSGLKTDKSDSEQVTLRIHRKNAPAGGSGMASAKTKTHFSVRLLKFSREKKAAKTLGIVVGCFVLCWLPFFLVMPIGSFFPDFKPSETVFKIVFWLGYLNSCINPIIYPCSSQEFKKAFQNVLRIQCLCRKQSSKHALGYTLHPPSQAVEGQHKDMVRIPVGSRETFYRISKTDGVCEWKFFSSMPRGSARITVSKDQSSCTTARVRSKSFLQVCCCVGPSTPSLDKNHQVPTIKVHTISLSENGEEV
Type of assay: functional, cell-based.

A further assay has as its target T2, Thromboxane A2 receptor (Homo sapiens, UniProt P21731).
T2 sequence (P21731 whole entry): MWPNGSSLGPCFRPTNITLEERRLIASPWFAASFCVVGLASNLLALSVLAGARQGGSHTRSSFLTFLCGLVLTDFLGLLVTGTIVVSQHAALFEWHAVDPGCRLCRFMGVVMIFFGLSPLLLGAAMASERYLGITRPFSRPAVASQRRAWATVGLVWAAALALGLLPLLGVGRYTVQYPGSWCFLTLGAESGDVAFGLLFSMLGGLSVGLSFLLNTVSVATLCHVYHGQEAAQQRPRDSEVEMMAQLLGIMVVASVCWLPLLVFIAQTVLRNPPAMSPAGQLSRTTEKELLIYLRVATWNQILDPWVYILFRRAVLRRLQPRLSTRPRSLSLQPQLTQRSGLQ
The assay is classed as functional, cell-based.

Assay [5] has as its target T3, Type-2 angiotensin II receptor (Homo sapiens, UniProt P50052).
T3 sequence (P50052 whole entry): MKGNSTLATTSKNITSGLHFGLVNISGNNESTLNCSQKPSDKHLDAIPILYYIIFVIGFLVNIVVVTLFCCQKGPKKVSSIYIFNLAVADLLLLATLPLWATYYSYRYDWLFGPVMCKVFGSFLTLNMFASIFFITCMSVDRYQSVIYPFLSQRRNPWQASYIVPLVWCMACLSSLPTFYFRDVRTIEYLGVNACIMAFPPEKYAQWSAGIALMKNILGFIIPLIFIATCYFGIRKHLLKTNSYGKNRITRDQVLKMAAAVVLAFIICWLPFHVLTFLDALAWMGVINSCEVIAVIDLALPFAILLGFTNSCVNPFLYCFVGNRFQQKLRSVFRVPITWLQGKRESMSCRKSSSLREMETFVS
Type of assay: functional.

The target of assay [6] is T4, Nuclear receptor subfamily 1 group I member 3 (Homo sapiens, UniProt Q14994).
T4 sequence (Q14994 whole entry): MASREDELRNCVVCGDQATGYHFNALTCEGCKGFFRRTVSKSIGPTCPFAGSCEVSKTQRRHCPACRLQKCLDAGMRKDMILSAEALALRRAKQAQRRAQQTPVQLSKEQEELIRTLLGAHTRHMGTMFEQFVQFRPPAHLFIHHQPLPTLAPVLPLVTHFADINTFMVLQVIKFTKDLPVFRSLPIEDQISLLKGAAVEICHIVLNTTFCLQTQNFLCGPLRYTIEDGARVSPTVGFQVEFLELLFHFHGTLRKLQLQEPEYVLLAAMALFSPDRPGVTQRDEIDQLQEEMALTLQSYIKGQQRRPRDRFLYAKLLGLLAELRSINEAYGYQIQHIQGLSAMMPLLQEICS
The assay is classed as functional.

The next assay concerns the target T5, Bile acid receptor (Homo sapiens, UniProt Q96RI1).
T5 sequence (Q96RI1 whole entry): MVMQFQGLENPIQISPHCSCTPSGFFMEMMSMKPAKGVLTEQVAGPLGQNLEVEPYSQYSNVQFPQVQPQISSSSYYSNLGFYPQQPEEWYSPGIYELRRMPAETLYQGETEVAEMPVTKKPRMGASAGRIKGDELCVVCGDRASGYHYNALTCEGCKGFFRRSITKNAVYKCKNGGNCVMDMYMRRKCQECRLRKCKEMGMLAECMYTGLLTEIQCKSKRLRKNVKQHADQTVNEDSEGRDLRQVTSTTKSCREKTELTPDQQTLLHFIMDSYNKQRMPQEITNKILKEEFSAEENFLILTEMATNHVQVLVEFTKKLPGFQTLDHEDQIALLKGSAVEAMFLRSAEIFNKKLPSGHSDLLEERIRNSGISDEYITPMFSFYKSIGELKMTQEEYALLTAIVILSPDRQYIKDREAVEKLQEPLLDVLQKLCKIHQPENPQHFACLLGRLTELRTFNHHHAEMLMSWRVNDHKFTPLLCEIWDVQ
Type of assay: functional.

Assay [7] concerns the target T6, Oxysterols receptor LXR-beta (Homo sapiens, UniProt P55055).
T6 sequence (P55055 whole entry): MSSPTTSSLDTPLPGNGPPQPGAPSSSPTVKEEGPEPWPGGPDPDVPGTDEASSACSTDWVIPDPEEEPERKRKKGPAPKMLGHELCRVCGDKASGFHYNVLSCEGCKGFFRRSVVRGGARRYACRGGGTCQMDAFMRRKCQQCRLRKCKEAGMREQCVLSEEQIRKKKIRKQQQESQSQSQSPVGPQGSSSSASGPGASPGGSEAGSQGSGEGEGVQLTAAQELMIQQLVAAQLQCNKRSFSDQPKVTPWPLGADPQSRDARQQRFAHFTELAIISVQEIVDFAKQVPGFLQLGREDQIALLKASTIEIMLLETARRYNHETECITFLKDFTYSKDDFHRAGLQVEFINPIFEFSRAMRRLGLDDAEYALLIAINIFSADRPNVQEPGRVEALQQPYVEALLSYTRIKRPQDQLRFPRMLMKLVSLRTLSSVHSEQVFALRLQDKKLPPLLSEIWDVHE
Type of assay: functional.
Further: assay procedure not described here.

Synaptic vesicular amine transporter, sequence (Q01827 whole entry): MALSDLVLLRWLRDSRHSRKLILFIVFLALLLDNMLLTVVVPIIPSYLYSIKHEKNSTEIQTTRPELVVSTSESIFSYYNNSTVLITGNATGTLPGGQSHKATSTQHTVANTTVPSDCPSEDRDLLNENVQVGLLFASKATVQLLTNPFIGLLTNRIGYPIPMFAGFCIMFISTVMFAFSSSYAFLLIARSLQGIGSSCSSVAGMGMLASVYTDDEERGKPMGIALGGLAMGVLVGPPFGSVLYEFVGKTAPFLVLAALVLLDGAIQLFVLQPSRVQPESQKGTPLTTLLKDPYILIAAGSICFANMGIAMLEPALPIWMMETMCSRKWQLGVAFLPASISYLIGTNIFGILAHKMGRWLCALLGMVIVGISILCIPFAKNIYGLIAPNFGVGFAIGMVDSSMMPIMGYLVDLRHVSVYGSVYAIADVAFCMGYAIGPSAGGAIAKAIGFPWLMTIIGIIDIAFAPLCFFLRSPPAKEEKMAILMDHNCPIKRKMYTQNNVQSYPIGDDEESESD
Voltage-dependent L-type calcium channel subunit alpha-1C, sequence (Q13936 whole entry): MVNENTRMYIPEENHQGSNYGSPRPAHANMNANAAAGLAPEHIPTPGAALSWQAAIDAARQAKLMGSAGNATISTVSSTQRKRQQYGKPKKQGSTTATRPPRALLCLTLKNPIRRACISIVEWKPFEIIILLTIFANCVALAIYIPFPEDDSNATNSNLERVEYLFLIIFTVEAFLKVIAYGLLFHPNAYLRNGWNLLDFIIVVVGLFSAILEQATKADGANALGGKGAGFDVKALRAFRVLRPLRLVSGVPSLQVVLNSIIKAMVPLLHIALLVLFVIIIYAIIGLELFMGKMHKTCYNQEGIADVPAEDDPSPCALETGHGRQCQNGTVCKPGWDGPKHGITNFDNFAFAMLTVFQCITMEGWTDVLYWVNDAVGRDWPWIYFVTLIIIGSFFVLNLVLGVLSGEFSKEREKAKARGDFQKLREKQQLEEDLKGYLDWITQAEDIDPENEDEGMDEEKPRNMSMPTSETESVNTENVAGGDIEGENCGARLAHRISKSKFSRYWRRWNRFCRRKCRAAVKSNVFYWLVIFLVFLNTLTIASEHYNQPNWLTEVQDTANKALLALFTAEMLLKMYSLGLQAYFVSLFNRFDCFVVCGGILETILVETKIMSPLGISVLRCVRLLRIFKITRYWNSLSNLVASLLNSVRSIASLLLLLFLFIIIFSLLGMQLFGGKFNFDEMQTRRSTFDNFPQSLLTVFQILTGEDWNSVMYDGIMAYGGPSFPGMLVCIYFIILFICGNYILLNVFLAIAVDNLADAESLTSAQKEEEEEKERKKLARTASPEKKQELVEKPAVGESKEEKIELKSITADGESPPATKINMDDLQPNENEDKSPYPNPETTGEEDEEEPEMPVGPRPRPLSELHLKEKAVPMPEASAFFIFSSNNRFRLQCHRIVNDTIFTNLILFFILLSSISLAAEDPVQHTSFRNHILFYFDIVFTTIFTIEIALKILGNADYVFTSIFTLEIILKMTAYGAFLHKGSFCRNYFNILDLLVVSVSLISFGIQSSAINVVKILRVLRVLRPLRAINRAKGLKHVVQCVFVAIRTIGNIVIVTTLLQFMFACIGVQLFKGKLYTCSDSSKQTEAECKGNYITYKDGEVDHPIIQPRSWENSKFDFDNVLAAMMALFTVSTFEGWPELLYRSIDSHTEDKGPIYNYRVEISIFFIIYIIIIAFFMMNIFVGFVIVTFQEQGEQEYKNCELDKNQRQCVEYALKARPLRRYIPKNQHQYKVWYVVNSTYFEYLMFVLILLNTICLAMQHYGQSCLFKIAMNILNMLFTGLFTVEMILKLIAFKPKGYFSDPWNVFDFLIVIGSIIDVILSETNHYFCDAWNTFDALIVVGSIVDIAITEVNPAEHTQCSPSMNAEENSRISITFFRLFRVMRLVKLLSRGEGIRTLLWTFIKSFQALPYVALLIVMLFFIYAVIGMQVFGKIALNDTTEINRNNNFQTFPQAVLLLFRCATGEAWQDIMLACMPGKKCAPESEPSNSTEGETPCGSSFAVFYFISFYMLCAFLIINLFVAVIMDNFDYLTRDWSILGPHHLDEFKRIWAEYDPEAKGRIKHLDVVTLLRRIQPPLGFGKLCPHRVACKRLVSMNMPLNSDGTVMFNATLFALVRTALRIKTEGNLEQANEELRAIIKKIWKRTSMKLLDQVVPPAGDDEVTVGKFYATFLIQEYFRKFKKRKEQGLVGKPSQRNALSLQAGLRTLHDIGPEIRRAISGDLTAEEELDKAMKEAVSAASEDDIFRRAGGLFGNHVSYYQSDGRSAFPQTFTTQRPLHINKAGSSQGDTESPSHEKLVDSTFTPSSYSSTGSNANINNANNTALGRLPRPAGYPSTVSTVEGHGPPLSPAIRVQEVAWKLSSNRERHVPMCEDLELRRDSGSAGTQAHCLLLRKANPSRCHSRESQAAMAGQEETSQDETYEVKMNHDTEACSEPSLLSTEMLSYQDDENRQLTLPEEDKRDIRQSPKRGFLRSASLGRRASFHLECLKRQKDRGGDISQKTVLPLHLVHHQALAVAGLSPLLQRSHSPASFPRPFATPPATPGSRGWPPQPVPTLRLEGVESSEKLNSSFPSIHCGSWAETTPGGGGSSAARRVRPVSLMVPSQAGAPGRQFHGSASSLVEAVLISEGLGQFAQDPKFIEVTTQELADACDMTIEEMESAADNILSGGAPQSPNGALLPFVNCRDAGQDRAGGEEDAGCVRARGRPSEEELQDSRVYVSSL
5-hydroxytryptamine receptor 2B, sequence (P41595 whole entry): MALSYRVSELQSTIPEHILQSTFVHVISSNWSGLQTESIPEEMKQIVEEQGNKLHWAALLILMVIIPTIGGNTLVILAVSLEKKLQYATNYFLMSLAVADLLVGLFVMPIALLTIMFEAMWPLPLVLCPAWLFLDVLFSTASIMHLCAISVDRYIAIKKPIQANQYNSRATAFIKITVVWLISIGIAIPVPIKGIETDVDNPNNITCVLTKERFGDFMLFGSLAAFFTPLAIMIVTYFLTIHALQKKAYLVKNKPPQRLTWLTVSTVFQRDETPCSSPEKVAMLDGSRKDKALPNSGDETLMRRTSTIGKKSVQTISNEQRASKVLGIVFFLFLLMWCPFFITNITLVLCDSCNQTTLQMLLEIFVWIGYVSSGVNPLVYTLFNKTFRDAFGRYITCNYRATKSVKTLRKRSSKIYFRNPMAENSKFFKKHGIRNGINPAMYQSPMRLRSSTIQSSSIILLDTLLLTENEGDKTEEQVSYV

The term AC50 denotes the concentration at which the activity in the assay is half-maximal. As for `O=C(O)c1ccc2nc(-c3cc(Cl)cc(Cl)c3)oc2c1`, the AC50 in assay [1] is greater than 30 µM.
`CC(NC(C)(C)C)C(=O)c1cccc(Cl)c1` (configuration not stated) [BUPROPION] showed a half-maximal activity concentration (AC50) in [2] greater than 30 µM.
Regarding `N=C(N)NC(=O)Cc1c(Cl)cccc1Cl` [GUANFACINE], the results for the AC50 (in assay [3]; in assay [4]; at Thromboxane A2 receptor) were 1.01 µM, 0.0093 µM and greater than 30 µM, respectively.
The molecule `CC1Cc2ccccc2N1NC(=O)c1ccc(Cl)c(S(N)(=O)=O)c1` (configuration not stated) [INDAPAMIDE] yielded a concentration at half-maximal activity (AC50) in assay [5] greater than 100 µM.
Consider `CC(=O)N1CCN(c2ccc(OCC3COC(Cn4ccnc4)(c4ccc(Cl)cc4Cl)O3)cc2)CC1` (configuration not stated) [KETOCONAZOLE], for which the AC50 in assay [6] is 5 µM; at Bile acid receptor, greater than 30 µM; in assay [7], greater than 30 µM; in assay [2], 0.57 µM.
In assay [5], `CC(C)(C)NCC(O)COc1cccc2c1CC(O)C(O)C2` (configuration not stated) [NADOLOL] had a half-maximal activity concentration (AC50) greater than 100 µM.
As to `CCCCCCCC(=O)CC[C@@H]1[C@@H](C/C=C\CCCC(=O)O)[C@@H](O)C[C@H]1O` [UNOPROSTONE], the AC50 in assay [1] was greater than 50 µM.

Values taken from ChEMBL document CHEMBL5291721, “A preclinical secondary pharmacology resource illuminates target-adverse drug reaction associations of marketed drugs” (Nat Commun, 2023).
